Source: paper PMC5216056 (Nature Communications, 2017)
Values joined by “and” are separate entries in the source; they are usually repeats but may differ in a detail not shown here. Equal values may be shown once. Read-outs that look alike come from different tables or passages of the source.

Assays:
[1] = 1 μM
[2] = biological target: T1, hCB1R (Homo sapiens, UniProt P21554); assay: biochemical; format: binding
T1 construct: host or cells: CHO

[3] = logD distribution coefficient; conditions: distribution coefficient
[4] = 1 μM; remark: listed apart in the source
[5] = biological target: T2, mCB1R (Mus musculus, UniProt P47746); assay: biochemical; format: binding
T2 construct: from tissue; host or cells: brain of male C57BL/6J mice

[6] = biological target: T3, Human recombinant TRPV1 (Homo sapiens, UniProt Q8NER1); assay: cell-based; format: cell-based; conditions: for EC50: read-out: TRPV1 Potency EC50
T3 construct: expressed in transfected cells; host or cells: HEK293 (TRPV1-HEK-293, gift from John Davis, GlaxoSmithKline)

[7] = biological target: T4, Rat recombinant TRPV3 (Rattus norvegicus, UniProt Q4QYD9); assay: cell-based; format: cell-based; conditions: for EC50: read-out: TRPV3 Potency EC50; for IC50: vs thymol 100μM, read-out: TRPV3 IC50 for antagonism or desensitization
T4 construct: expressed in transfected cells; host or cells: HEK293 (TRPV3-HEK-293, gift from HB Bradshaw, Indiana University)
T4 sequence (Q4QYD9 1-791): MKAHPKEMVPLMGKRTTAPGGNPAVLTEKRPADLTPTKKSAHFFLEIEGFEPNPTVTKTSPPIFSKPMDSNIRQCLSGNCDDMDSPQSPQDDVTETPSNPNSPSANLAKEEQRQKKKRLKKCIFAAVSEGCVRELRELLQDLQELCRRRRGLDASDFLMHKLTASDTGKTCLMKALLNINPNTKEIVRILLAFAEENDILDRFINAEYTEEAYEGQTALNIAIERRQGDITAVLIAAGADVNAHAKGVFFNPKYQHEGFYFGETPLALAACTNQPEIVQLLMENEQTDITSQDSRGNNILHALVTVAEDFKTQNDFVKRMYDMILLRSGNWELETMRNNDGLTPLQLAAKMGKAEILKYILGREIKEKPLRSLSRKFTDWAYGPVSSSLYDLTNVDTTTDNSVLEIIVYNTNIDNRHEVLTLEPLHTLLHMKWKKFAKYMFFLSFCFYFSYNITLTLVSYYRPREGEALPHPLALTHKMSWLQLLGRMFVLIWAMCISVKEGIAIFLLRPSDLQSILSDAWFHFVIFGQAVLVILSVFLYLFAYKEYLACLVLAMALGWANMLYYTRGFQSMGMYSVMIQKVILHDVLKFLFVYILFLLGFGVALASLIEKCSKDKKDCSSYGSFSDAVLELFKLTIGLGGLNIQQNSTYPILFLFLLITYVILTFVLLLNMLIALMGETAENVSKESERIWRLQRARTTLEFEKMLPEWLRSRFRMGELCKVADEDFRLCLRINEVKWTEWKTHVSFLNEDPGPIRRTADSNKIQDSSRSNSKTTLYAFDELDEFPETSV

[8] = biological target: T5, Rat recombinant TRPV4 (Rattus norvegicus, UniProt Q9ERZ8); assay: cell-based; format: cell-based; conditions: for IC50: vs 4αPDD 1μM, read-out: TRPV4 IC50 for desensitization
T5 construct: expressed in transfected cells; host or cells: HEK293 (TRPV4-HEK-293, gift from HB Bradshaw, Indiana University)

[9] = biological target: T6, Rat recombinant TRPA1 (Rattus norvegicus, UniProt Q6RI86); assay: cell-based; format: cell-based; conditions: for EC50: read-out: TRPA1 Potency EC50; for IC50: vs AITC 100μM, 5 min pre-incubation, read-out: TRPA1 IC50 for antagonism or desensitization
T6 construct: expressed in transfected cells

[10] = biological target: T7, kappa (KOP) (Rattus norvegicus, UniProt P34975); assay: CEREP panel; format: binding; conditions: for % inhibition kappa (KOP): 10 µM
T7 construct: CEREP (contract assay)

[11] = biological target: T8, beta 1 (h) (Homo sapiens, UniProt P08588); assay: biochemical; format: binding; conditions: 10 µM
T8 construct: CEREP

[12] = biological target: T9, mu (MOP) (h) (Homo sapiens, UniProt P35372); assay: CEREP panel; format: binding; conditions: 10 µM
T9 construct: CEREP (contract assay)

[13] = biological target: T10, A3 (h) (Homo sapiens, UniProt P0DMS8); assay: CEREP panel; format: binding; conditions: 10 µM
T10 construct: CEREP
T10 sequence (P0DMS8 1-318): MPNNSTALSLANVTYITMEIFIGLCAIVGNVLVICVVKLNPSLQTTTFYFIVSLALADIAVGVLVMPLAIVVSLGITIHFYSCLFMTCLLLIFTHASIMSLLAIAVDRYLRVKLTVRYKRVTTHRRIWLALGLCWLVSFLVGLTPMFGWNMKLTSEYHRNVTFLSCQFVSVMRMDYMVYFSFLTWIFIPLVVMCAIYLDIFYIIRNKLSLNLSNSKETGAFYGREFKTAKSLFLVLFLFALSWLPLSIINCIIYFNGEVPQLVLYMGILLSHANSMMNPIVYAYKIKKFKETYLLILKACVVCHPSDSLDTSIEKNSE

[14] = biological target: T11, norepinephrine transporter (h) (Homo sapiens, UniProt P23975); assay: biochemical; format: binding; conditions: 10 µM
T11 construct: CEREP (contract assay)

[15] = test system: Na+ channel (site 2); format: binding; conditions: 10 µM
[16] = test system: AR (h); assay: CEREP panel; format: binding, human; conditions: 10 µM
[17] = test system: PCP; format: binding; conditions: 10 µM
[18] = 1 μM; remark: listed apart in the source
[19] = biological target: mouse P-gp (Mus musculus, UniProt P21447); conditions: efflux ratio
[20] = biological target: T12, PPARα (h) (Homo sapiens, UniProt Q07869); assay: CEREP panel; format: binding; conditions: 10 µM
T12 construct: CEREP (contract assay)
T12 sequence (Q07869 1-468): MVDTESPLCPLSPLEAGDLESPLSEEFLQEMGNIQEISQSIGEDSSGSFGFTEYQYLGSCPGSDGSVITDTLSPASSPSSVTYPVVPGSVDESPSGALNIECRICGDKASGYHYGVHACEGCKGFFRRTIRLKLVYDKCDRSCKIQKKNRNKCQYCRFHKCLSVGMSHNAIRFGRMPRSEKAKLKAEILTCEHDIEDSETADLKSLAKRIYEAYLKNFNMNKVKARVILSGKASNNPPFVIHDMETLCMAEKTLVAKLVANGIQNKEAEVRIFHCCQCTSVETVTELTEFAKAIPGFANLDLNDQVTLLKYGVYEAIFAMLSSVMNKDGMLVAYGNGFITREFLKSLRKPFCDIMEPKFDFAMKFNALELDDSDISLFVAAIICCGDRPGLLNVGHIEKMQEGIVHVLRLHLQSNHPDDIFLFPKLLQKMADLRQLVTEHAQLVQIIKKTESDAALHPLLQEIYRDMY

[21] = read-out: TRPV1 IC50 for antagonism or desensitization
[22] = CHO membranes, Leiden, HU210 and SR144528 from Roche

T1 sequence (P21554 whole entry): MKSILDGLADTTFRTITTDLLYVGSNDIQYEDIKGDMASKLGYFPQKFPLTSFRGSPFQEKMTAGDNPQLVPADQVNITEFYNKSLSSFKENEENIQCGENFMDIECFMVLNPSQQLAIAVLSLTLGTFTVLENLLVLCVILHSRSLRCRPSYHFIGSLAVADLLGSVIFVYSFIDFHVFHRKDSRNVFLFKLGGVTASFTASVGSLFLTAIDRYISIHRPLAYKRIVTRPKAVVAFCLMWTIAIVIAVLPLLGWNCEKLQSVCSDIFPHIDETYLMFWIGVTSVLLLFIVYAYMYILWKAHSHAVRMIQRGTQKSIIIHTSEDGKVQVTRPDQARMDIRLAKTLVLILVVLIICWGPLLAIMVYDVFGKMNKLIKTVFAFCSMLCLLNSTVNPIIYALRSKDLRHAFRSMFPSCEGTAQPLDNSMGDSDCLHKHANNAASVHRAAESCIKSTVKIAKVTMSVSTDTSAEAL
T2 sequence (P47746 whole entry): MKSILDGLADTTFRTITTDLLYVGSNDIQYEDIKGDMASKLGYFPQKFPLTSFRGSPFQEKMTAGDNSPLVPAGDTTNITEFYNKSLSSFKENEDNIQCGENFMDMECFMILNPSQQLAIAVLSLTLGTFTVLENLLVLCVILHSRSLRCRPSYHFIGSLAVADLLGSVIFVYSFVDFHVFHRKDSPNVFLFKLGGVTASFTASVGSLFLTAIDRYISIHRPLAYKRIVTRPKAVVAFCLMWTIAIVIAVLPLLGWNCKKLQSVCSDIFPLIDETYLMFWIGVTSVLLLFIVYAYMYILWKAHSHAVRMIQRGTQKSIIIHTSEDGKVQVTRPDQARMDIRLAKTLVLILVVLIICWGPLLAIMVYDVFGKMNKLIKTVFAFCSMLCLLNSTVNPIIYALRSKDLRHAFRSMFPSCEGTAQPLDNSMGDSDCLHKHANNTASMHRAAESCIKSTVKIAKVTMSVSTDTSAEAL
T8 sequence (P08588 whole entry): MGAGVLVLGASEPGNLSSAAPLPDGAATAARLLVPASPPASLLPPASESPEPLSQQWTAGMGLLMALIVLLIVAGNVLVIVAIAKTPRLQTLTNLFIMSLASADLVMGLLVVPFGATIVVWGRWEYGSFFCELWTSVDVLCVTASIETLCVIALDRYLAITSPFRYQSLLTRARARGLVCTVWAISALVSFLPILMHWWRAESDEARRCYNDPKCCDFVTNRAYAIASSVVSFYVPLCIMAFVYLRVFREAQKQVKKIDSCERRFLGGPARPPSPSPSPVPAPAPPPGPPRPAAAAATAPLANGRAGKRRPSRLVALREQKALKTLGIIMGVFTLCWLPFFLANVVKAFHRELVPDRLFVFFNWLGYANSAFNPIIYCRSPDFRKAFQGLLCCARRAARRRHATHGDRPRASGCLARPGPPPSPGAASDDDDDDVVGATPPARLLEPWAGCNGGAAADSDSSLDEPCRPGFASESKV
T3 sequence (Q8NER1 whole entry): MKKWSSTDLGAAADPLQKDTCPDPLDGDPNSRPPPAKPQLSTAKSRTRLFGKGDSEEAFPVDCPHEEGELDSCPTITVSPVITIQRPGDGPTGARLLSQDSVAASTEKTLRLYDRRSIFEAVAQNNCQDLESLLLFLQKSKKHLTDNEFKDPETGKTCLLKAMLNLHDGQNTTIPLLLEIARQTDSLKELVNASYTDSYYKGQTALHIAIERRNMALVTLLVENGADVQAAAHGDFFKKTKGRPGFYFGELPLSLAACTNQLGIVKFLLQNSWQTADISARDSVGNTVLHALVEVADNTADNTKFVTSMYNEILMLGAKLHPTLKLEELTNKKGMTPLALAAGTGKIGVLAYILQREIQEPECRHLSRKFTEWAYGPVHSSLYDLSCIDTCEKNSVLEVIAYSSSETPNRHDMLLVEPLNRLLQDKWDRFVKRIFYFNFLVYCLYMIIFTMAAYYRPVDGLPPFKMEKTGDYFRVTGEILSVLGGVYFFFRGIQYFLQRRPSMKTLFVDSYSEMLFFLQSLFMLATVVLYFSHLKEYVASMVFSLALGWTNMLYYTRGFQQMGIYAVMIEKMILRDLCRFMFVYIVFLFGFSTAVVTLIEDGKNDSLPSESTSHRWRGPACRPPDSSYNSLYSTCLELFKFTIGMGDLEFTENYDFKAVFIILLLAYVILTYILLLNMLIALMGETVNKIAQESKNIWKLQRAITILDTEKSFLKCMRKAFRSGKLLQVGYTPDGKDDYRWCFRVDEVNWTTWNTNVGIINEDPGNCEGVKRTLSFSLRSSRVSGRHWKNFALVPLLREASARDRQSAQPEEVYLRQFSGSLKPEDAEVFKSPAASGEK
T11 sequence (P23975 whole entry): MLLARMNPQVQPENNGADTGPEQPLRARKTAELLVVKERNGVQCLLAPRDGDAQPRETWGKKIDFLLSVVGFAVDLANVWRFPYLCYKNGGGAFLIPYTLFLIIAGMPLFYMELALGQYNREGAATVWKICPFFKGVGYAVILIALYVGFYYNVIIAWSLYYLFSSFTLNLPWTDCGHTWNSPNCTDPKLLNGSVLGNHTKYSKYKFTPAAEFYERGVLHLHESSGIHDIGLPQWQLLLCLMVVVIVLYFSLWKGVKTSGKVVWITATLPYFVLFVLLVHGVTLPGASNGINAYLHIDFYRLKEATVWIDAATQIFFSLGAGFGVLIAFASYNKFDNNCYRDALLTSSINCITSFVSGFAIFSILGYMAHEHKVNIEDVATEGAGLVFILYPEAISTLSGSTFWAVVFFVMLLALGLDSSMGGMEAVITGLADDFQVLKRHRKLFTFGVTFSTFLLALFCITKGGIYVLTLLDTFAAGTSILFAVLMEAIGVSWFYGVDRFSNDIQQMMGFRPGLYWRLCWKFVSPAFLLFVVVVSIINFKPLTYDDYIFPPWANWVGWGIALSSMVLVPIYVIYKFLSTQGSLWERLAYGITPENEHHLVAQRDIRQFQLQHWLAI
T9 sequence (P35372 whole entry): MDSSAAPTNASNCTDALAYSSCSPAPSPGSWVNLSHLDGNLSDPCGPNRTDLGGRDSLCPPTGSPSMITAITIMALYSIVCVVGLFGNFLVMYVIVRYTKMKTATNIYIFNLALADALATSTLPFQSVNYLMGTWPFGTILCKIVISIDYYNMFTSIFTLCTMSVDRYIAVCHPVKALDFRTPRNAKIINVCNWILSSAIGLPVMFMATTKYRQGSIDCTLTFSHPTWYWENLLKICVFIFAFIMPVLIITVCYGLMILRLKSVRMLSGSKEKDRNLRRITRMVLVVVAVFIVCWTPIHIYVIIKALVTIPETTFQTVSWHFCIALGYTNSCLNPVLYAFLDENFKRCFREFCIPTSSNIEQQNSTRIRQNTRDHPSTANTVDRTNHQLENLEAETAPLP
T7 sequence (P34975 whole entry): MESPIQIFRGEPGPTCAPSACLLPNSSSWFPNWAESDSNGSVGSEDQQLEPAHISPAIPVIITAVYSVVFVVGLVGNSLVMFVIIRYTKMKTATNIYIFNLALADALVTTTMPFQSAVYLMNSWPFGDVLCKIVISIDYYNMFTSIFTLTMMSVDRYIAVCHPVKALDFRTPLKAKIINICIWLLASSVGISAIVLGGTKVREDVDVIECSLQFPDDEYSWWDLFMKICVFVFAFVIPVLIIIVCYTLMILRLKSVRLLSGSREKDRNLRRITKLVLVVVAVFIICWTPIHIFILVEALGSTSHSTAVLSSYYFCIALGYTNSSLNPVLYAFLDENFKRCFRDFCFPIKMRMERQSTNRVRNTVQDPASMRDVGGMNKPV
T6 sequence (Q6RI86 whole entry): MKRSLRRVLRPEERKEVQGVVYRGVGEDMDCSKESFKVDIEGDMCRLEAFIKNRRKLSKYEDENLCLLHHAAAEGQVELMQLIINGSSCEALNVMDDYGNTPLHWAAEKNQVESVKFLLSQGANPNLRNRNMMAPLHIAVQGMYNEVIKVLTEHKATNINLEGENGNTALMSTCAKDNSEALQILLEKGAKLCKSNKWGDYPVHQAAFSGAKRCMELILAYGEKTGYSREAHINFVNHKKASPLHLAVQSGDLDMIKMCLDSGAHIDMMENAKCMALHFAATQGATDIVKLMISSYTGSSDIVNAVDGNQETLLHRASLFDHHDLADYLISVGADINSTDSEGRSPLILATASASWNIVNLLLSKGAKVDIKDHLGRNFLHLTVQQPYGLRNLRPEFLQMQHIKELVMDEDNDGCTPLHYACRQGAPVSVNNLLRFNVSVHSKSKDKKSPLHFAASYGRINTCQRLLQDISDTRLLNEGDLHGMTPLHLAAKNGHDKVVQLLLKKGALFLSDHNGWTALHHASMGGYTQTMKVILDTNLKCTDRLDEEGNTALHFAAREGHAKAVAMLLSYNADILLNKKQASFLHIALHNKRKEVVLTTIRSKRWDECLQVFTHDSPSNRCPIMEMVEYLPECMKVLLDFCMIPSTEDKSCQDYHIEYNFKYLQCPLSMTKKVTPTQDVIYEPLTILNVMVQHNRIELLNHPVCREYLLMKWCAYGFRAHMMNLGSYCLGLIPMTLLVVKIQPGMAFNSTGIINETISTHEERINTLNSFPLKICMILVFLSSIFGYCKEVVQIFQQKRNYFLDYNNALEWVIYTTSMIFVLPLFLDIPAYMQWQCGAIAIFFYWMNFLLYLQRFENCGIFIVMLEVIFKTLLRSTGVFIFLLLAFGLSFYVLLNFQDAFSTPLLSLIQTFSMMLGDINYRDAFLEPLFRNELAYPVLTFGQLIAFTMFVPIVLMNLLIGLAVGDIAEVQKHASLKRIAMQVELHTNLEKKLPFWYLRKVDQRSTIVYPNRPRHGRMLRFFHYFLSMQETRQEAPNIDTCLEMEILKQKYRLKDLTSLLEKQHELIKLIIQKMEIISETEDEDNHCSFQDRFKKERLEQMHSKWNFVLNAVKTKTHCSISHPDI

Molecule	CL microsomes mouse [1] [µL/min/mg protein]	logD [3]	CL microsomes human [4] [µL/min/mg protein]	TRPV1 Efficacy (% ionomycin 4μM) [6] [%]	TRPV3 Efficacy (% ionomycin 4μM) [7] [%]	IC50 [7] [µM]	TRPV4 Efficacy (% ionomycin 4μM) [8] [%]	IC50 [8] [µM]	TRPA1 Efficacy (%AITC 100μM) [9]	EC50 [9] [µM]	IC50 [9] [µM]	% inhibition kappa (KOP) [10] [%]	% inhibition beta 1 (h) [11] [%]	% inhibition mu (MOP) (h) [12] [%]	% inhibition A3 (h) [13] [%]	% inhibition Na+ channel (site 2) [15] [%]	% inhibition AR (h) [16] [%]	% inhibition PCP [17] [%]	% inhibition norepinephrine transporter (h) [14] [%]	% inhibition PPARα (h) [20] [%]	further results
CN1CCCCC1Cn1cc(C(=O)c2cc([N+](=O)[O-])ccc2I)c2ccccc21 (racemic) [(rac)-AM1241]	254	3.66±0.03	111																		pKi ± SEM hCB1R [2]: 6.89 ± 0.31; pKi ± SEM mCB1R [5]: 5.91 ± 0.16
CCCCC/C=C\C/C=C\C/C=C\C/C=C\CCCC(=O)OC(CO)CO [2-AG, 2-arachidonoyl glycerol]																					Ki ([5]; mouse brain membranes, read-out: pKi ± SEM mCB1R (converted)): 0.102 µM
CN1CCCC[C@@H]1Cn1cc(C(=O)c2cc([N+](=O)[O-])ccc2I)c2ccccc21 [(R)-AM1241]	314	3.66	304	10.7	12.9	> 50	< 10	8.7 ± 0.5	19.8%	19.5	> 50										IC50 [6, 21]: > 50 µM; EC50 [6]: > 50 µM; pKi ± SEM hCB1R [2, 22]: 6.86 ± 0.46; EC50 [7]: 10 µM; pKi ± SEM mCB1R ([5]; mouse brain membranes): 6.36 ± 0.13
Cc1c(C(=O)NN2CCCCC2)nn(-c2ccc(Cl)cc2Cl)c1-c1ccc(I)cc1 [AM251]					25.9		< 10		44.4%			94	25	93	93						
CCCCCCC(C)(C)c1ccc([C@@H]2C[C@H](O)CC[C@H]2CCCO)c(O)c1 [CP55940]																71	-28	1			inhibition at 10 µM [10]: 74%; inhibition at 10 µM ([14]; read-out: % inhibition norepinephrine transporter (h)): 89%; inhibition at 10 µM ([11]; read-out: % inhibition beta 1 (h)): 14%; inhibition at 10 µM ([12]; read-out: % inhibition mu (MOP) (h)): 57%; inhibition at 10 µM ([13]; read-out: % inhibition A3 (h)): 98%; Ki [5]: 0.00158 µM
Cc1ccc2c(c1)Cc1c(C(=O)NN3CCCCC3)nn(-c3ccc(Cl)cc3Cl)c1-2 [Gp-1a]	134		13	< 10	< 10	22.6	< 10	2.2 ± 0.1	83.6% and 84 ± 1%	2.1	10.4	99	30	102	95	40	-8	-1	59	-9	IC50 [6, 21]: 3 ± 0.1 µM; CL hepatocytes mouse [18]: 78 µL/min/mio cells; pKi ± SEM hCB1R [2, 22]: 6.97 ± 0.35; P-gp (ER) mouse [19]: 1.1; pKi ± SEM mCB1R ([5]; mouse brain membranes): 6.37 ± 0.08
CCCn1c(C)c(C(=O)c2cccc3ccccc23)c2ccccc21 [JWH015]	989		41									53	7	7	93	50	0	-19	39	-16	CL hepatocytes mouse [18]: 205 µL/min/mio cells; P-gp (ER) mouse [19]: 1.5; pKi ± SEM mCB1R ([5]; mouse brain membranes): 5.94 ± 0.15
Cc1c(C(=O)NN2CCCCC2)nn(-c2ccc(Cl)cc2Cl)c1-c1ccc(Cl)cc1 [SR141716A]				17.5	38.9	3.4 ± 0.4	< 10	2 ± 0.1	67.3% and 67 ± 1%	1.9	12.5						4				IC50 ([6]; TRPV1 IC50 for antagonism or desensitization): 33.7 µM and 11.5 µM; EC50 [6]: 12 µM; EC50 [7]: 0.85 µM; inhibition at 10 µM ([20]; read-out: % inhibition PPARα (h)): -5%
Cc1c(C(=O)c2cccc3ccccc23)c2cccc3c2n1[C@H](CN1CCOCC1)CO3 [WIN55212-2]	745	3.67±0.03	194	44.4	22.9	> 100	< 10	16.1 ± 1.7	72.3% and 72 ± 1%	2.3	6.4 ± 0.6	79	6	21	84	68	8	-3	33	-4	IC50 [6, 21]: 35.8 ± 2.2 µM; EC50 [6]: 19.2 µM; CL hepatocytes mouse [18]: 568 µL/min/mio cells; EC50 [7]: 6.5 µM
SR144528				< 10	< 10		< 10		43.8%				41	11	72	34	-12	-13	29	-14	
